In patent US10660877B2 (BRISTOL-MYERS SQUIBB COMPANY, priority 2016, dated 2020) one finds IC50 data, which are given here for 25 molecules.

One assay concerns the target human TLR9 (Homo sapiens (Human), UniProt Q9NR96). In words: TLR9 inhibition reporter assay (HEK-Blue cells, SEAP reporter, ODN2006 stimulation).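 Note: compounds tested over 0.05 nM to 50 µM, 22 h incubation, inhibition taken as SEAP signal drop from agonist plus DMSO wells toward a known inhibitor control.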
The next assay deals with human TLR8 (Homo sapiens (Human), UniProt Q9NR97). Put plainly: TLR8 inhibition reporter assay (HEK-Blue cells, SEAP reporter, R848 stimulation).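 Note: compounds tested from 0.05 nM to 50 µM, 22 h at 37 °C, SEAP measured with HEK-Blue Detection, inhibition relative to agonist plus DMSO versus a known inhibitor.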
For a further assay, the target named is human TLR7 (Homo sapiens (Human), UniProt Q9NYK1). Put plainly: TLR7 inhibition reporter assay (HEK-Blue cells, SEAP reporter, gardiquimod stimulation). The format is cell-based. The note with it: HEK-Blue cells overexpressing human TLR7, gardiquimod 7.5 μM.
Where [1] appears, read: read-out: TLR9 IC50, HEK-Blue cells overexpressing human TLR9, ODN2006 5 nM.
Setting [2] is: read-out: TLR8 IC50, HEK-Blue cells overexpressing human TLR8, R848 15.9 μM.
The mark [3] stands for this setting: TLR9 IC50, HEK-Blue cells overexpressing human TLR9, ODN2006 5 nM.
[4] abbreviates: TLR8 IC50, HEK-Blue cells overexpressing human TLR8, R848 15.9 μM.

Like-named read-outs stand apart in the source and are kept apart here.

Sequence of human TLR8 (Q9NR97 27-1041): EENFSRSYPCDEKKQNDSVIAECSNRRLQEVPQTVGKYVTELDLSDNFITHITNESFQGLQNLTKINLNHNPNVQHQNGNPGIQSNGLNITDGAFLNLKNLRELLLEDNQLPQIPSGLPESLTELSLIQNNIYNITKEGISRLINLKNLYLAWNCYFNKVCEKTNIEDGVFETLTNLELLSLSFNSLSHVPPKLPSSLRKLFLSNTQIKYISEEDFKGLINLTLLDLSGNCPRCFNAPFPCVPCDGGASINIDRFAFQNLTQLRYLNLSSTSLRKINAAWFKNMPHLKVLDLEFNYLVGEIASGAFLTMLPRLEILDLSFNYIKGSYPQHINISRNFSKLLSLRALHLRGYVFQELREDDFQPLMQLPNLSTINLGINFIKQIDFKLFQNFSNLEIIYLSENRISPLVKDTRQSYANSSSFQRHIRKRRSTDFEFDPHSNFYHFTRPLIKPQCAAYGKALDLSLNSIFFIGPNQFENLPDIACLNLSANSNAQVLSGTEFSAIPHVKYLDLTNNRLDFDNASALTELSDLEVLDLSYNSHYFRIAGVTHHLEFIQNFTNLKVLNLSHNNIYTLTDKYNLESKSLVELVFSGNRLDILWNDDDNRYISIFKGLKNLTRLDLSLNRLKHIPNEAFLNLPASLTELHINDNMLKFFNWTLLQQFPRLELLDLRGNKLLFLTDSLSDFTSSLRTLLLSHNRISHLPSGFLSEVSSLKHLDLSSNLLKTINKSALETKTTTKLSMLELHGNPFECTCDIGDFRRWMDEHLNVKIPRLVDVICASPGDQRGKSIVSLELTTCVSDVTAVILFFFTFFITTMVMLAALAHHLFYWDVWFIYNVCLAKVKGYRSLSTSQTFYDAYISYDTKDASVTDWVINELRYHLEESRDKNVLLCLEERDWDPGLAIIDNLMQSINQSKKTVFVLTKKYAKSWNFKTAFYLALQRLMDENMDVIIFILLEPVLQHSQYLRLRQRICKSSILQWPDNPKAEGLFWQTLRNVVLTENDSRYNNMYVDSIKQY
Sequence of human TLR7 (Q9NYK1 27-1049): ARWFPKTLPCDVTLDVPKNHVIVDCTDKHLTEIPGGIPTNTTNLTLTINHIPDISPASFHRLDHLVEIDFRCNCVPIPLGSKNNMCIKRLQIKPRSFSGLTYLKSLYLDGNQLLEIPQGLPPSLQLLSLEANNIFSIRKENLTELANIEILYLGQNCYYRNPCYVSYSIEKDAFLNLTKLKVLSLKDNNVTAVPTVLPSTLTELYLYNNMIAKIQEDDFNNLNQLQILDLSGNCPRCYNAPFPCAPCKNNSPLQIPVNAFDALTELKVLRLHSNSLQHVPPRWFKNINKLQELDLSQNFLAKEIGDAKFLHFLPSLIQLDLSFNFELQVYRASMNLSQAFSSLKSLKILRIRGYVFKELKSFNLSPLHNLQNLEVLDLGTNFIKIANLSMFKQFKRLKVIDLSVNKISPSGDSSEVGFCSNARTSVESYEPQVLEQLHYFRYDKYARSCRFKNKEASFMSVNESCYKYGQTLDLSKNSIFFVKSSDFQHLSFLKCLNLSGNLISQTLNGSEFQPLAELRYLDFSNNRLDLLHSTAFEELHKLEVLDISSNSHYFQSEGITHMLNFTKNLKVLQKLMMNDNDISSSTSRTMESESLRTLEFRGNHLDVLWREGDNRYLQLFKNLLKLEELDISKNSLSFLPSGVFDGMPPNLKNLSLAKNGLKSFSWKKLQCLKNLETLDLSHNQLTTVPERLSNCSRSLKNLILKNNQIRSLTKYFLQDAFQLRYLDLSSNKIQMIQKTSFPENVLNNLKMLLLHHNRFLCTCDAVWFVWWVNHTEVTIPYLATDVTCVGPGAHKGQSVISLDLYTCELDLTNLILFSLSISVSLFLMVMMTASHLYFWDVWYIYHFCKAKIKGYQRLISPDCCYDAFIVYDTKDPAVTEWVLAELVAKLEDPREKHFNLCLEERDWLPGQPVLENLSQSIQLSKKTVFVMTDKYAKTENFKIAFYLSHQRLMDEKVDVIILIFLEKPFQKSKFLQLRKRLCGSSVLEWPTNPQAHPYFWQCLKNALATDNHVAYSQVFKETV
Sequence of human TLR9 (Q9NR96 26-1032): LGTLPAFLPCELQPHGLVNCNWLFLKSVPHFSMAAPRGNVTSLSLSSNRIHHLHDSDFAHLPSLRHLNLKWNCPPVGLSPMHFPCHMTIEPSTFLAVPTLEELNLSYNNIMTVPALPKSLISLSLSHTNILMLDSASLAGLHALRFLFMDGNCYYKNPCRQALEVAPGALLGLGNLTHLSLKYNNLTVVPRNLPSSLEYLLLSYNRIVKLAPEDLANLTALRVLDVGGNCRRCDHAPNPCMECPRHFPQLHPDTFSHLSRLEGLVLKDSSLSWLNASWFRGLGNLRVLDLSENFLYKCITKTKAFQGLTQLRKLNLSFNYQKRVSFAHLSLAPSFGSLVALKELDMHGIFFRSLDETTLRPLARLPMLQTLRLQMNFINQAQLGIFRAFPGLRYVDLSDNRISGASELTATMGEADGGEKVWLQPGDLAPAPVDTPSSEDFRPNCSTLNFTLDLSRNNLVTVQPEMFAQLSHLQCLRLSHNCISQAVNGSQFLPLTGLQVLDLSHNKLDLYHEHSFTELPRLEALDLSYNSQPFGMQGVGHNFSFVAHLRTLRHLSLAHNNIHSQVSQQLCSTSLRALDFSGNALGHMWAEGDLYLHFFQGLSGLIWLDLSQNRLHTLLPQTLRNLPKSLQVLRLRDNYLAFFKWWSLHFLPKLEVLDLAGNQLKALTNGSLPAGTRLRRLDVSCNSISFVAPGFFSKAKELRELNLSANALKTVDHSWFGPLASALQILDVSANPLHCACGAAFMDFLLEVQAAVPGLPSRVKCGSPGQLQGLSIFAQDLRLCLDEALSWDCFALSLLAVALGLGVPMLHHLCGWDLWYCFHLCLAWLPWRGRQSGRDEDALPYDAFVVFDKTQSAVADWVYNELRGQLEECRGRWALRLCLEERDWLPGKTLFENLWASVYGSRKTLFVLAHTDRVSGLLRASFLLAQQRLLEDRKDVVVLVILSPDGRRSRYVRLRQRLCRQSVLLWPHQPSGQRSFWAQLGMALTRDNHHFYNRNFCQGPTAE
Protocol for human TLR9: TLR7/8/9 Inhibition Reporter Assays
Briefly, cells are seeded into Greiner 384 well plates (15000 cells per well for TLR7, 20,000 for TLR8 and 25,000 for TLR9) and then treated with test compounds in DMSO to yield a final dose response concentration range of 0.05 nM-50 μM. […] After a 22 hour incubation at 37° C., 5% CO2, SEAP levels are determined with the addition of HEK-Blue™ Detection reagent (Invivogen), a cell culture medium that allows for detection of SEAP, according to manufacturer's specifications. The percent inhibition is determined as the % reduction in the HEK-Blue signal present in wells treated with agonist plus DMSO alone compared to wells treated with a known inhibitor.

On to `Cc1cc(-c2[nH]c3ccc(C4CCN(CC(=O)N(C)C5CC5)CC4)cc3c2C(C)C)cc(C)n1` [Example 248, N-cyclopropyl-2-(4-(2-(2,6-dimethylpyridin-4-yl)-3-isopropyl-1H-indol-5-yl)piperidin-1-yl)-N-methylacetamide], for which the IC50 at human TLR9 (setting [1]) is 343 nM; at human TLR8 (setting [2]), 10.2 nM; on human TLR7, 2.3 nM.
For `Cc1cc(-c2[nH]c3ccc(C4CCN(CCCO)CC4)cc3c2C(C)C)cc(C)n1` [Example 311, 3-(4-(2-(2,6-dimethylpyridin-4-yl)-3-isopropyl-1H-indol-5-yl)piperidin-1-yl)propan-1-ol], in that order: 270 nM, 2.5 nM and 1.8 nM.
In the same order, the values of `Cc1cc(-c2[nH]c3ccc(C4CCN(C(=O)CNC5CCCOC5)CC4)cc3c2C(C)C)cc(C)n1` (stereo not drawn) [Example 385, 1-(4-(2-(2,6-dimethylpyridin-4-yl)-3-isopropyl-1H-indol-5-yl)piperidin-1-yl)-2-((tetrahydro-2H-pyran-3-yl)amino)ethan-1-one] are 539 nM, 22 nM and 3.2 nM.
For `CC(C)c1c(-c2ccnc(F)c2)[nH]c2ccc(C3CCN(C(=O)CN(C)C)CC3)cc12` [Example 522, 2-(dimethylamino)-1-(4-(2-(2-fluoropyridin-4-yl)-3-isopropyl-1H-indol-5-yl)piperidin-1-yl)ethan-1-one], in that order: 2010 nM, 47.9 nM and 23.6 nM.
`CC(C)c1c(-c2ccnc(F)c2)[nH]c2ccc(C3CCN(C4CCN(C)CC4)CC3)cc12` [Example 523, 2-(2-fluoropyridin-4-yl)-3-isopropyl-5-(1′-methyl-[1,4′-bipiperidin]-4-yl)-1H-indole]: the values for the IC50 at human TLR9 (setting [1]), on human TLR8 (setting [2]) and against human TLR7 were 503 nM, 25.5 nM and 25.8 nM, respectively.
In the same order, the values of `Cc1cc(-c2[nH]c3ccc(C4CCN(C(=O)C5(C(F)(F)F)CC5)CC4)cc3c2C(C)C)ccn1` [Example 605, (4-(3-isopropyl-2-(2-methylpyridin-4-yl)-1H-indol-5-yl)piperidin-1-yl)(1-(trifluoromethyl)cyclopropyl)methanone] are 14300 nM, 124 nM and 77.7 nM.
Regarding `Cc1cc(-c2[nH]c3ccc(C4CCN(Cc5ccnn5C)CC4)cc3c2C(C)C)cc(C)n1` [Example 461, 2-(2,6-dimethylpyridin-4-yl)-3-isopropyl-5-(1-((1-methyl-1H-pyrazol-5-yl)methyl)piperidin-4-yl)-1H-indole], the concentration for half-maximal inhibition (IC50) was found to be 621 nM on human TLR9 (setting [1]), 7.5 nM at human TLR8 (setting [2]) and 9.3 nM on human TLR7.
For `Cc1cc(-c2[nH]c3ccc(C4CCN(CC(=O)NCC(C)O)CC4)cc3c2C(C)C)cc(C)n1` (stereo not drawn) [Example 260, 2-(4-(2-(2,6-dimethylpyridin-4-yl)-3-isopropyl-1H-indol-5-yl)piperidin-1-yl)-N-(2-hydroxypropyl) acetamide], in that order: 379 nM, 5.1 nM and 1.5 nM.
In the same order, the values of `Cc1cc(C(=O)N2CCC(c3ccc4[nH]c(-c5cc(C)nc(C)c5)c(C(C)C)c4c3)CC2)c(=O)[nH]n1` [Example 135, 4-(4-(2-(2,6-dimethylpyridin-4-yl)-3-isopropyl-1H-indol-5-yl)piperidine-1-carbonyl)-6-methylpyridazin-3 (2H)-one] are 13300 nM, 99.9 nM and 33.1 nM.
For `COc1cc(-c2[nH]c3ccc(C4CCN(C5CCOCC5)CC4)cc3c2C(C)C)ccn1` [Example 720, 3-isopropyl-2-(2-methoxypyridin-4-yl)-5-(1-(tetrahydro-2H-pyran-4-yl)piperidin-4-yl)-1H-indole], in that order: 2900 nM, 82.5 nM and 51 nM.
`Cc1cc(-c2[nH]c3ccc(C4CCN(C(=O)C5CCN(C)CC5)CC4)cc3c2C(C)C)cc(C)n1` [Example 110, (4-(2-(2,6-dimethylpyridin-4-yl)-3-isopropyl-1H-indol-5-yl)piperidin-1-yl)(1-methylpiperidin-4-yl)methanone]: the results for the IC50 on human TLR9 (setting [3]), on human TLR8 (setting [4]) and against human TLR7 were 385 nM, 8.1 nM and 3.9 nM, respectively.
Consider `Cc1cc(-c2[nH]c3ccc(C4CCNCC4)cc3c2C(C)C)c(C#N)c(NCC2CC2)n1` [Example 32, 2-((cyclopropylmethyl)amino)-4-(3-isopropyl-5-(piperidin-4-yl)-1H-indol-2-yl)-6-methylnicotinonitrile], for which the IC50 worked out at 3990 nM at human TLR9 (setting [1]), 3680 nM on human TLR8 (setting [2]) and 4070 nM against human TLR7.
In the same order, the values of `CCc1c(-c2cc(C)nc(C)c2)[nH]c2ccc(C3CCN(CC(=O)N(C)C)CC3)cc12` [Example 526, 2-(4-(2-(2,6-dimethylpyridin-4-yl)-3-ethyl-1H-indol-5-yl)piperidin-1-yl)-N,N-dimethylacetamide] are 102 nM, 24.7 nM and 10.5 nM.
For `CCc1c(-c2ccnc(OC)c2)[nH]c2ccc(C3CCN(C4CCN(C)CC4)CC3)cc12` [Example 790, 3-ethyl-2-(2-methoxypyridin-4-yl)-5-(1′-methyl-[1,4′-bipiperidin]-4-yl)-1H-indole], in that order: 1780 nM, 1410 nM and 1700 nM.
For `Cc1cc(-c2[nH]c3ccc(C4CCN(C(=O)Cc5cc(C)nn5C)CC4)cc3c2C(C)C)cc(C)n1` [Example 136, 2-(1,3-dimethyl-1H-pyrazol-5-yl)-1-(4-(2-(2,6-dimethylpyridin-4-yl)-3-isopropyl-1H-indol-5-yl)piperidin-1-yl)ethan-1-one], in that order: 30000 nM, 134 nM and 23.3 nM.
`COCCOCCN1CCC(c2ccc3[nH]c(-c4cc(C)nc(C)c4)c(C(C)C)c3c2)CC1` [Example 324, 2-(2,6-dimethylpyridin-4-yl)-3-isopropyl-5-(1-(2-(2-methoxyethoxy)ethyl)piperidin-4-yl)-1H-indole]: the IC50 at human TLR9 (setting [1]) came out at 413 nM; on human TLR8 (setting [2]), 4.4 nM; at human TLR7, 7.4 nM.
For `Cc1cc(-c2[nH]c3ccc(C4CCN(CC(=O)NC56C[C@@H]7C[C@@H](CC(O)(C7)C5)C6)CC4)cc3c2C(C)C)cc(C)n1` [Example 225, 2-(4-(2-(2,6-dimethylpyridin-4-yl)-3-isopropyl-1H-indol-5-yl)piperidin-1-yl)-N-((1r,3 s,5R,7S)-3-hydroxyadamantan-1-yl)acetamide], in that order: 651 nM, 26.8 nM and 11.6 nM.
Regarding `Cc1cc(-c2[nH]c3ccc(C4CCN(C(=O)CO)CC4)cc3c2C(C)C)cc(C)n1` [Example 116, 1-(4-(2-(2,6-dimethylpyridin-4-yl)-3-isopropyl-1H-indol-5-yl)piperidin-1-yl)-2-hydroxyethan-1-one], the IC50 came out at 32200 nM against human TLR9 (setting [3]), 127 nM on human TLR8 (setting [4]) and 3.4 nM on human TLR7.
Consider `CNCC(=O)N1CCC(c2ccc3[nH]c(-c4ccnc(C)c4)c(C(C)C)c3c2)CC1` [Example 510, 1-(4-(3-isopropyl-2-(2-methylpyridin-4-yl)-1H-indol-5-yl)piperidin-1-yl)-2-(methylamino)ethan-1-one], for which the IC50 at human TLR9 (setting [1]) was 695 nM; at human TLR8 (setting [2]) it was 8.6 nM; on human TLR7 it was 8.8 nM.
In the same order, the values of `Cc1nccc(-c2[nH]c3ccc(C4CCN(C5COC5)CC4)cc3c2C(C)C)c1F` [Example 730, 2-(3-fluoro-2-methylpyridin-4-yl)-3-isopropyl-5-(1-(oxetan-3-yl)piperidin-4-yl)-1H-indole] are 9410 nM, 8.2 nM and 9.2 nM.
In the same order, the values of `CCc1c(-c2ccnc(C)c2)[nH]c2ccc(C3CCN(C[C@@H]4CCNC4)CC3)cc12` [Example 739, (R)-3-ethyl-2-(2-methylpyridin-4-yl)-5-(1-(pyrrolidin-3-ylmethyl)piperidin-4-yl)-1H-indole] are 96 nM, 8.2 nM and 120 nM.
For `CO[C@@H]1C[C@H](CO)N(CC(=O)N2CCC(c3ccc4[nH]c(-c5cc(C)nc(C)c5)c(C(C)C)c4c3)CC2)C1` [Example 395, 1-(4-(2-(2,6-dimethylpyridin-4-yl)-3-isopropyl-1H-indol-5-yl)piperidin-1-yl)-2-((2R,4R)-2-(hydroxymethyl)-4-methoxypyrrolidin-1-yl)ethan-1-one], in that order: 995 nM, 41.1 nM and 9.7 nM.
Turning to `CCOCCN1CCC(c2ccc3[nH]c(-c4ccnc(C)c4)c(C(C)C)c3c2)CC1` [Example 659, 5-(1-(2-ethoxyethyl)piperidin-4-yl)-3-isopropyl-2-(2-methylpyridin-4-yl)-1H-indole], the figures for the IC50 at human TLR9 (setting [1]), on human TLR8 (setting [2]) and at human TLR7 were 1450 nM, 16.7 nM and 31.7 nM, respectively.
In the same order, the values of `Cc1cc(-c2[nH]c3ccc(C4CCN(C(=O)CN(C)CCO)CC4)cc3c2C(C)C)c(F)cn1` [Example 680, 1-(4-(2-(5-fluoro-2-methylpyridin-4-yl)-3-isopropyl-1H-indol-5-yl)piperidin-1-yl)-2-((2-hydroxyethyl)(methyl)amino)ethan-1-one] are 2970 nM, 4 nM and 2 nM.
For `CCCNCC(=O)N1CCC(c2ccc3[nH]c(-c4cc(C)nc(C)c4)c(C(C)C)c3c2)CC1` [Example 348, 1-(4-(2-(2,6-dimethylpyridin-4-yl)-3-isopropyl-1H-indol-5-yl)piperidin-1-yl)-2-(propylamino)ethan-1-one], in that order: 425 nM, 11.3 nM and 3.6 nM.
